Test results as given in patent US20110306621A1, “ACYLGUANIDINE DERIVATIVES” (priority 2009, published 2011).
pKi: −log10 of the molar value.

These compounds were tested against T1, human 5-HT5A receptor (Homo sapiens, UniProt P47898) (assay: Test on a human 5-HT5A receptor binding inhibition ([3H]5-CT)). Details: membrane from HEK293 cells for forced expression of human 5-HT5A receptor; Ki calculated from IC50 and Kd of [3H]5-CT (4.95 nM).
T1 construct: expressed in transfected cells; membranes used
Method: The ORF (open reading frame; protein coding region) of a human 5-HT5A receptor (Genbank AF498985) was cloned from a human hippocampus cDNA library, and then inserted into a pCR2.1 vector (Invitrogen), and Escherichia coli containing the plasmid was cultured in a large amount. Next, the full-length cDNA sequence of the human 5-HT5A receptor was analyzed, and recombined into a pcDNA3.1 vector (Invitrogen) as an expression vector and cultured in a large amount. HEK293 established cells (ATCC) derived from the human fetal kidney were seeded, the expression plasmid (1 μg) obtained above were added thereto with LIPOFECTAMINE 2000 (Invitrogen; 2 μl), the gene was transfected into HEK293 cells, and the expression cells were screened with a drug-resistant marker, Geneticin (G418 sulfate 500 μg/ml; Kanto Chemical Co., Inc.). Thus prepared recombinant cells which expressed the gene were cultured in a medium containing D-MEM (Dulbecco's modified eagle medium, Sigma), 10% FCS (Fetal calf serum: fetal bovine serum), 1% Pc./Sm (Penicillin/Streptomycin, Invitrogen), and 500 μg/ml G418 for 3 days. These experimental operations followed a manual for gene operation experiment and an instruction appended in a reagent, and the like, such as a known method (Sambrook, J. et al, Molecular Cloning-A Laboratory Manual”, Cold Spring Harabor laboratory, NY, 1989).
HEK293 cells for forced expressions of a human 5-HT5A receptor were cultured in a F500 plate, and scraped with a scraper. After centrifugation, the precipitate was collected, and an incubation buffer (50 mM Tris (HCl) (pH 7.4), 10 mM MgSO4, and 0.5 mM EDTA (ethylenediamine tetraacetic acid)) was added thereto. After homogenization, it was further centrifuged, and the incubation buffer was added to the precipitate, followed by thoroughly suspending. The operation was repeated, and protein concentration was measured, thereby completing preparation of the membrane.
A solution of the compound to be tested and 100 μM 5-CT (5-carboxamidetriptamine) in DMSO was added to a 96-well plate at 2 μl/well, suspended in an incubation buffer, and a membrane from HEK293 cells for forced expressions of a human 5-HT5A receptor prepared at 200 μg/ml was added at 100 μl/well. After incubation at room temperature for 15 minutes, a [^3H]5-CT solution (2 nM [^3H]5-CT, incubation buffer) was added thereto at 100 μl/well.
Separately, 100 μl of the solution was distributed into a liquid scintillation vial, and 2 ml of Aquasol II (registered trademark) was added thereto, followed by stirring. Then, radioactivity was measured by a liquid scintillation counter. It was incubated at 37° C. for 60 minutes. The reaction mixture was sucked into 96-well GF/C filter plate that had been pre-treated with 0.2% polyethyleneimine, and washed six times with an ice-cooled, 50 mM Tris (pH 7.5) buffer. The GF/C filter plate was dried.
Microscint TMPS (registered trademark) was added thereto at 40 μl/well. Radioactivity remaining on the GF/C filter plate was measured by a top counter.
The [^3H]5-CT binding inhibiting activity by the compound to be tested in each experiment was determined as an IC50 value with a radioactivity upon addition of DMSO alone being 0% inhibition, and a radioactivity upon addition of 1 μM 5-CT being 100% inhibition. Separately, Ki values were calculated from the Kd value of the [^3H]5-CT determined from Scatchard analysis, by the following equation.
Ki=IC50 (1+Concentraion of ligand added/Kd (4.95 nM))

T1 sequence (P47898 whole entry): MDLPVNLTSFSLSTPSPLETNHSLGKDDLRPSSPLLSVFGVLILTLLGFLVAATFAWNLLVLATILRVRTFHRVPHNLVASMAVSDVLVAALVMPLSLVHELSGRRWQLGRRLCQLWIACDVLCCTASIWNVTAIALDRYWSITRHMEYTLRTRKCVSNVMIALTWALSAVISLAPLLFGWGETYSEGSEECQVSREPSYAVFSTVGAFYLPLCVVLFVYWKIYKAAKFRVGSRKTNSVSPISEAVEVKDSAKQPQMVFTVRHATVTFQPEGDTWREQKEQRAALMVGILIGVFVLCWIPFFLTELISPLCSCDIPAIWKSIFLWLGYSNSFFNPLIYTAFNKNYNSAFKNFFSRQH

Row | Structure (SMILES) | pKi
1 | NC(N)=NC(=O)c1ccc2cccc(-c3cccc4c3OC(F)(F)O4)c2c1 [Example 115] | 7.52 to 8.52
2 | COCc1cc(F)c(-c2cccc3ccc(C(=O)N=C(N)N)cc23)c(F)c1 [Example 120] | 7.52 to 8.52
3 | Cc1nc(-c2ccccc2)sc1-c1cccc2ccc(C(=O)N=C(N)N)cc12 [Example 122] | 7.52 to 8.52
4 | NC(N)=NC(=O)c1ccc2cccc(-c3cccc4cccnc34)c2c1 [Example 123] | 7.52 to 8.52
5 | NC(N)=NC(=O)c1ccc2cccc(-c3ccc(F)c4c3C(=O)CC4)c2c1 [Example 126] | 6.52 to 7.52
6 | COc1c(F)cc(F)c(-c2cccc3ccc(C(=O)N=C(N)N)cc23)c1F [Example 127] | 7.52 to 8.52
7 | NC(N)=NC(=O)c1ccc2cccc(-c3cncc4ccccc34)c2c1 [Example 130] | 7.52 to 8.52
8 | NC(N)=NC(=O)c1ccc2cccc(-c3ccncc3)c2c1 [Example 133] | 7.52 to 8.52
9 | NC(N)=NC(=O)c1ccc2cccc(-c3ccc(F)cn3)c2c1 [Example 134] | 7.52 to 8.52
10 | NC(N)=NC(=O)c1ccc2cccc(-c3ncccc3F)c2c1 [Example 135] | 7.52 to 8.52
11 | COc1ccccc1-c1c(Cl)cc(Cl)c2ccc(C(=O)N=C(N)N)cc12 [Example 136] | 7.52 to 8.52
12 | Cc1nc(-c2ccc(-c3cccc4ccc(C(=O)N=C(N)N)cc34)cc2)no1 [Example 137] | 7.52 to 8.52
13 | Cc1cc(-c2cccc3ccc(C(=O)N=C(N)N)cc23)ccn1 [Example 141] | 7.52 to 8.52
14 | Cc1nc2cccc(-c3cccc4ccc(C(=O)N=C(N)N)cc34)c2o1 [Example 144] | 7.52 to 8.52
15 | NC(N)=NC(=O)c1ccc2cccc(-c3ccc(Cl)cc3O)c2c1 [Example 150] | 8.52 to 9.52
16 | NC(N)=NC(=O)c1ccc2cccc(-c3ncc(Cl)cc3Cl)c2c1 [Example 151] | 8.52 to 9.52
17 | Cc1cc(Cl)cnc1-c1cccc2ccc(C(=O)N=C(N)N)cc12 [Example 152] | 7.52 to 8.52
18 | NC(N)=NC(=O)c1ccc2cccc(-c3ccc(Cl)cn3)c2c1 [Example 153] | 7.52 to 8.52
19 | NC(N)=NC(=O)c1ccc2cccc(-c3cccc(C(F)(F)F)n3)c2c1 [Example 154] | 7.52 to 8.52
20 | N#Cc1cc(F)c(-c2cccc3ccc(C(=O)N=C(N)N)cc23)c(F)c1 [Example 155] | 8.52 to 9.52
21 | NC(N)=NC(=O)c1ccc2ccc(Cl)c(-c3ccncc3F)c2c1 [Example 156] | 8.52 to 9.52
22 | NC(N)=NC(=O)c1ccc2ccc(Cl)c(-c3ccncc3Cl)c2c1 [Example 157] | 8.52 to 9.52
23 | Cc1nc(-c2cccc3ccc(C(=O)N=C(N)N)cc23)ccc1F [Example 158] | 6.52 to 7.52
24 | COc1cccc(-c2cccc3ccc(C(=O)N=C(N)N)cc23)n1 [Example 159] | 7.52 to 8.52
25 | NC(N)=NC(=O)c1ccc2ccc(F)c(-c3ccncc3Cl)c2c1 [Example 160] | 8.52 to 9.52

Row | Structure (SMILES) | pKi
26 | NC(N)=NC(=O)c1ccc2ccc(F)c(-c3ccccc3O)c2c1 [Example 161] | 8.52 to 9.52
27 | Cc1ccc2ccc(C(=O)N=C(N)N)cc2c1-c1ccccc1O [Example 162] | 7.52 to 8.52
28 | Cc1nc(C2CC2)sc1-c1cccc2ccc(C(=O)N=C(N)N)cc12 [Example 163] | 7.52 to 8.52
29 | N#Cc1cccc(Cl)c1-c1cccc2ccc(C(=O)N=C(N)N)cc12 [Example 164] | 7.52 to 8.52
30 | NC(N)=NC(=O)c1ccc2cccc(-c3nccc4ccccc34)c2c1 [Example 165] | 7.52 to 8.52
31 | Cc1cc(-c2cccc3ccc(C(=O)N=C(N)N)cc23)cc(C)n1 [Example 166] | 7.52 to 8.52
32 | NC(N)=NC(=O)c1ccc2cccc(-c3cccc4ccncc34)c2c1 [Example 167] | 8.52 to 9.52
33 | NC(N)=NC(=O)c1ccc2cccc(-c3ncccc3C(F)(F)F)c2c1 [Example 168] | 6.52 to 7.52
34 | NC(N)=NC(=O)c1ccc2cccc(-c3ncc(F)cc3Cl)c2c1 [Example 169] | 8.52 to 9.52
35 | N#Cc1cc(-c2cccc3ccc(C(=O)N=C(N)N)cc23)ccn1 [Example 170] | 7.52 to 8.52
36 | NC(=O)c1cc(-c2cccc3ccc(C(=O)N=C(N)N)cc23)ccn1 [Example 171] | 6.52 to 7.52
37 | NC(N)=NC(=O)c1ccc2cccc(-c3ccnc(Cl)c3F)c2c1 [Example 172] | 7.52 to 8.52
38 | NC(N)=NC(=O)c1ccc2cccc(-c3c[nH]c4ccccc34)c2c1 [Example 173] | 7.52 to 8.52
39 | COc1nc(C)ccc1-c1c(Cl)ccc2ccc(C(=O)N=C(N)N)cc12 [Example 174] | 8.52 to 9.52
40 | NC(N)=NC(=O)c1ccc2c(F)ccc(-c3c(F)cccc3F)c2c1 [Example 175] | 8.52 to 9.52
41 | NC(N)=NC(=O)c1ccc2cccc(-c3cc(C(F)(F)F)ccn3)c2c1 [Example 176] | 6.52 to 7.52
42 | NC(N)=NC(=O)c1ccc2cccc(-c3c(F)ccc(F)c3O)c2c1 [Example 177] | 8.52 to 9.52
43 | NC(N)=NC(=O)c1ccc2cccc(-c3cccc(Cl)c3O)c2c1 [Example 178] | 8.52 to 9.52
44 | NC(N)=NC(=O)c1ccc2cccc(-c3cccc4nonc34)c2c1 [Example 179] | 7.52 to 8.52
45 | NC(N)=NC(=O)c1ccc2cccc(-c3ncc(Cl)cc3F)c2c1 [Example 180] | 7.52 to 8.52
46 | N#Cc1cccnc1-c1cccc2ccc(C(=O)N=C(N)N)cc12 [Example 181] | 6.52 to 7.52
47 | NC(N)=NC(=O)c1ccc2cccc(-c3cncs3)c2c1 [Example 182] | 7.52 to 8.52
48 | NC(N)=NC(=O)c1ccc2cccc(-c3cc(C(F)(F)F)ncn3)c2c1 [Example 183] | 7.52 to 8.52
49 | N#Cc1ccc(-c2cccc3ccc(C(=O)N=C(N)N)cc23)nc1 [Example 184] | 7.52 to 8.52

Second part, the compound after the results:

Row | pKi | Structure (SMILES)
50 | 8.52 to 9.52 | Cc1ccc2ccc(C(=O)N=C(N)N)cc2c1-c1ccncc1F [Example 114]
51 | 8.52 to 9.52 | NC(N)=NC(=O)c1ccc2cccc(-c3c(O)cccc3Cl)c2c1 [Example 116]
52 | 8.52 to 9.52 | NC(N)=NC(=O)c1ccc2cccc(-c3c(O)ccc(F)c3F)c2c1 [Example 117]
53 | 8.52 to 9.52 | NC(N)=NC(=O)c1ccc2cccc(-c3c(F)ccc(O)c3F)c2c1 [Example 118]
54 | 8.52 to 9.52 | NC(N)=NC(=O)c1ccc2cccc(-c3c(F)ccc(O)c3Cl)c2c1 [Example 119]
55 | 8.52 to 9.52 | NC(N)=NC(=O)c1ccc2cccc(-c3c(F)cc(CO)cc3F)c2c1 [Example 121]
56 | 8.52 to 9.52 | COc1ccccc1-c1c(Cl)ccc2ccc(C(=O)N=C(N)N)cc12 [Example 124]
57 | 8.52 to 9.52 | N#Cc1ccc(-c2c(Cl)ccc3ccc(C(=O)N=C(N)N)cc23)cc1 [Example 125]
58 | 8.52 to 9.52 | NC(N)=NC(=O)c1ccc2cccc(-c3cccc4cnccc34)c2c1 [Example 128]
59 | 8.52 to 9.52 | NC(N)=NC(=O)c1ccc2cccc(-c3ccnc4ccccc34)c2c1 [Example 129]
60 | 8.52 to 9.52 | NC(N)=NC(=O)c1ccc2cccc(-c3c(O)cc(F)cc3F)c2c1 [Example 131]
61 | 8.52 to 9.52 | N#Cc1ccc(-c2cccc3ccc(C(=O)N=C(N)N)cc23)c(O)c1 [Example 132]
62 | 8.52 to 9.52 | NC(N)=NC(=O)c1ccc2cccc(-c3ccccc3C3CC3)c2c1 [Example 138]
63 | 8.52 to 9.52 | NC(N)=NC(=O)c1ccc2cccc(-c3cc(Cl)c(F)cc3F)c2c1 [Example 139]
64 | 8.52 to 9.52 | NC(N)=NC(=O)c1ccc2cccc(-c3c(F)cc(F)cc3Cl)c2c1 [Example 140]
65 | 8.52 to 9.52 | NC(N)=NC(=O)c1ccc2cccc(-c3c(F)cc(O)cc3F)c2c1 [Example 142]
66 | 8.52 to 9.52 | NC(N)=NC(=O)c1ccc2cccc(-c3c(F)cc(F)c(O)c3F)c2c1 [Example 143]
67 | 8.52 to 9.52 | COc1cc(C#N)ccc1-c1c(Cl)ccc2ccc(C(=O)N=C(N)N)cc12 [Example 145]
68 | 8.52 to 9.52 | COc1ncccc1-c1c(Cl)ccc2ccc(C(=O)N=C(N)N)cc12 [Example 146]
69 | 8.52 to 9.52 | NC(N)=NC(=O)c1ccc2ccc(Cl)c(-c3ccncc3)c2c1 [Example 147]
70 | 8.52 to 9.52 | NC(N)=NC(=O)c1ccc2cccc(-c3c(F)cncc3Cl)c2c1 [Example 148]
71 | 8.52 to 9.52 | N#Cc1cc(F)cc(F)c1-c1cccc2ccc(C(=O)N=C(N)N)cc12 [Example 149]
